{"source": "ChEMBL document CHEMBL3885861", "about": "“Open TG-GATES”", "species": "Rattus norvegicus", "test": "Open TG-GATES - Regimen: Daily Repeat", "assay_type": "toxicity, organism-based, Sprague-Dawley", "parameters": "regimen Daily Repeat, gender Male, age 6 weeks", "settings": "in vivo, po, 30 mg/kg, […], route gavage, dose level High; for KIDNEY_L / KIDNEY_R / KIDNEY_TOTAL: tissue Kidney; for LIVER: tissue Liver; for A/G / ALP / ALT / AST / BUN / CRE / Ca / Cl / DBIL / GLC / IP / K / LDH / Na / PL / RALB / TBIL / TC / TG / TP / gamma-GTP: tissue Plasma"}
{"molecule": "Nc1c2c(nc3ccccc13)CCCC2", "note": "[TACRINE]", "values": [{"measurement": "Lym", "setting": "tissue Blood, time 28 day", "value": 74, "unit": "%"}, {"measurement": "MCH", "setting": "tissue Blood, time 28 day", "value": 20.1, "unit": "pg"}, {"measurement": "MCHC", "setting": "tissue Blood, time 28 day", "value": 36.4, "unit": "%"}, {"measurement": "MCV", "setting": "tissue Blood, time 28 day", "value": 55.1, "unit": "fL"}, {"measurement": "Mono", "setting": "tissue Blood, time 28 day", "value": 2, "unit": "%"}, {"measurement": "Neu", "setting": "tissue Blood, time 28 day", "value": 22, "unit": "%"}, {"measurement": "PT", "setting": "tissue Blood, time 28 day", "value": 16.5, "unit": "s"}, {"measurement": "Plat", "setting": "tissue Blood, time 28 day", "value": 114.6, "unit": "x10_4/uL"}, {"measurement": "RBC", "setting": "tissue Blood, time 28 day", "value": 748, "unit": "x10_4/ul"}, {"measurement": "Ret", "setting": "tissue Blood, time 28 day", "value": 3.3, "unit": "%"}, {"measurement": "WBC", "setting": "tissue Blood, time 28 day", "value": 119.9, "unit": "x10_2/uL"}, {"measurement": "KIDNEY_L", "setting": "time 7 day", "value": 1, "unit": "g"}, {"measurement": "KIDNEY_R", "setting": "time 7 day", "value": 1, "unit": "g"}, {"measurement": "KIDNEY_TOTAL", "setting": "time 7 day", "value": 1.9, "unit": "g"}, {"measurement": "KIDNEY_L", "setting": "time 14 day", "value": 1.1, "unit": "g"}, {"measurement": "KIDNEY_R", "setting": "time 14 day", "value": 1.1, "unit": "g"}, {"measurement": "KIDNEY_TOTAL", "setting": "time 14 day", "value": 2.2, "unit": "g"}, {"measurement": "KIDNEY_L", "setting": "time 28 day", "value": 1.2, "unit": "g"}, {"measurement": "KIDNEY_R", "setting": "time 28 day", "value": 1.2, "unit": "g"}, {"measurement": "KIDNEY_TOTAL", "setting": "time 28 day", "value": 2.4, "unit": "g"}, {"measurement": "LIVER", "setting": "time 7 day", "value": 8.9, "unit": "g"}, {"measurement": "LIVER", "setting": "time 14 day", "value": 9.8, "unit": "g"}, {"measurement": "LIVER", "setting": "time 28 day", "value": 11.2, "unit": "g"}, {"measurement": "A/G", "setting": "time 7 day", "value": 1.2}, {"measurement": "ALP", "setting": "time 7 day", "value": 923, "unit": "IU/L"}, {"measurement": "ALT", "setting": "time 7 day", "value": 41, "unit": "IU/L"}, {"measurement": "AST", "setting": "time 7 day", "value": 79.7, "unit": "IU/L"}, {"measurement": "BUN", "setting": "time 7 day", "value": 15, "unit": "mg/dL"}, {"measurement": "CRE", "setting": "time 7 day", "value": 0.2, "unit": "mg/dL"}, {"measurement": "Ca", "setting": "time 7 day", "value": 10.9, "unit": "mg/dL"}, {"measurement": "Cl", "setting": "time 7 day", "value": 105.7, "unit": "meq/L"}, {"measurement": "DBIL", "setting": "time 7 day", "value": 0.0033, "unit": "mg/dL"}, {"measurement": "GLC", "setting": "time 7 day", "value": 176.3, "unit": "mg/dL"}, {"measurement": "IP", "setting": "time 7 day", "value": 9.6, "unit": "mg/dL"}, {"measurement": "K", "setting": "time 7 day", "value": 4.2, "unit": "meq/L"}, {"measurement": "LDH", "setting": "time 7 day", "value": 268.3, "unit": "IU/L"}, {"measurement": "Na", "setting": "time 7 day", "value": 141, "unit": "meq/L"}, {"measurement": "PL", "setting": "time 7 day", "value": 140.7, "unit": "mg/dL"}, {"measurement": "RALB", "setting": "time 7 day", "value": 3, "unit": "g/dL"}, {"measurement": "TBIL", "setting": "time 7 day", "value": 0.0167, "unit": "mg/dL"}, {"measurement": "TC", "setting": "time 7 day", "value": 70.7, "unit": "mg/dL"}, {"measurement": "TG", "setting": "time 7 day", "value": 95.7, "unit": "mg/dL"}, {"measurement": "TP", "setting": "time 7 day", "value": 5.6, "unit": "g/dL"}, {"measurement": "gamma-GTP", "setting": "time 7 day", "value": 1, "unit": "IU/L"}, {"measurement": "A/G", "setting": "time 14 day", "value": 1.2}, {"measurement": "ALP", "setting": "time 14 day", "value": 1172, "unit": "IU/L"}, {"measurement": "ALT", "setting": "time 14 day", "value": 39, "unit": "IU/L"}, {"measurement": "AST", "setting": "time 14 day", "value": 74.7, "unit": "IU/L"}, {"measurement": "BUN", "setting": "time 14 day", "value": 19.7, "unit": "mg/dL"}, {"measurement": "CRE", "setting": "time 14 day", "value": 0.2, "unit": "mg/dL"}, {"measurement": "Ca", "setting": "time 14 day", "value": 10.9, "unit": "mg/dL"}, {"measurement": "Cl", "setting": "time 14 day", "value": 106.3, "unit": "meq/L"}, {"measurement": "DBIL", "setting": "time 14 day", "value": 0, "unit": "mg/dL"}, {"measurement": "GLC", "setting": "time 14 day", "value": 174, "unit": "mg/dL"}, {"measurement": "IP", "setting": "time 14 day", "value": 8.1, "unit": "mg/dL"}, {"measurement": "K", "setting": "time 14 day", "value": 4.6, "unit": "meq/L"}, {"measurement": "LDH", "setting": "time 14 day", "value": 212.7, "unit": "IU/L"}, {"measurement": "Na", "setting": "time 14 day", "value": 141, "unit": "meq/L"}, {"measurement": "PL", "setting": "time 14 day", "value": 143, "unit": "mg/dL"}, {"measurement": "RALB", "setting": "time 14 day", "value": 3, "unit": "g/dL"}, {"measurement": "TBIL", "setting": "time 14 day", "value": 0.02, "unit": "mg/dL"}, {"measurement": "TC", "setting": "time 14 day", "value": 69.3, "unit": "mg/dL"}, {"measurement": "TG", "setting": "time 14 day", "value": 104, "unit": "mg/dL"}, {"measurement": "TP", "setting": "time 14 day", "value": 5.5, "unit": "g/dL"}, {"measurement": "gamma-GTP", "setting": "time 14 day", "value": 1, "unit": "IU/L"}, {"measurement": "A/G", "setting": "time 28 day", "value": 1}, {"measurement": "ALP", "setting": "time 28 day", "value": 1280, "unit": "IU/L"}, {"measurement": "ALT", "setting": "time 28 day", "value": 35, "unit": "IU/L"}, {"measurement": "AST", "setting": "time 28 day", "value": 81, "unit": "IU/L"}, {"measurement": "BUN", "setting": "time 28 day", "value": 17, "unit": "mg/dL"}, {"measurement": "CRE", "setting": "time 28 day", "value": 0.2, "unit": "mg/dL"}, {"measurement": "Ca", "setting": "time 28 day", "value": 10.4, "unit": "mg/dL"}, {"measurement": "Cl", "setting": "time 28 day", "value": 106, "unit": "meq/L"}, {"measurement": "DBIL", "setting": "time 28 day", "value": 0, "unit": "mg/dL"}, {"measurement": "GLC", "setting": "time 28 day", "value": 160, "unit": "mg/dL"}, {"measurement": "IP", "setting": "time 28 day", "value": 8.2, "unit": "mg/dL"}, {"measurement": "K", "setting": "time 28 day", "value": 4.2, "unit": "meq/L"}, {"measurement": "LDH", "setting": "time 28 day", "value": 96, "unit": "IU/L"}, {"measurement": "Na", "setting": "time 28 day", "value": 143, "unit": "meq/L"}, {"measurement": "PL", "setting": "time 28 day", "value": 128, "unit": "mg/dL"}, {"measurement": "RALB", "setting": "time 28 day", "value": 2.9, "unit": "g/dL"}, {"measurement": "TBIL", "setting": "time 28 day", "value": 0.03, "unit": "mg/dL"}, {"measurement": "TC", "setting": "time 28 day", "value": 71, "unit": "mg/dL"}, {"measurement": "TG", "setting": "time 28 day", "value": 64, "unit": "mg/dL"}, {"measurement": "TP", "setting": "time 28 day", "value": 5.7, "unit": "g/dL"}, {"measurement": "gamma-GTP", "setting": "time 28 day", "value": 1, "unit": "IU/L"}]}
